Test results taken from article PMC3040809 (Amino Acids, 2010).

Key:
[1] = system: cellular levels of O-GlcNAcylation; conditions: ref Liu et al. [2005], [2006], [2007]; Noach et al. [2007]; Kang et al. [2008]; cited from earlier work
hOGT = target: T1, hOGT (Homo sapiens, UniProt O15294); assay type: biochemical
T1 sequence (O15294 26-1036 isoform O15294-3): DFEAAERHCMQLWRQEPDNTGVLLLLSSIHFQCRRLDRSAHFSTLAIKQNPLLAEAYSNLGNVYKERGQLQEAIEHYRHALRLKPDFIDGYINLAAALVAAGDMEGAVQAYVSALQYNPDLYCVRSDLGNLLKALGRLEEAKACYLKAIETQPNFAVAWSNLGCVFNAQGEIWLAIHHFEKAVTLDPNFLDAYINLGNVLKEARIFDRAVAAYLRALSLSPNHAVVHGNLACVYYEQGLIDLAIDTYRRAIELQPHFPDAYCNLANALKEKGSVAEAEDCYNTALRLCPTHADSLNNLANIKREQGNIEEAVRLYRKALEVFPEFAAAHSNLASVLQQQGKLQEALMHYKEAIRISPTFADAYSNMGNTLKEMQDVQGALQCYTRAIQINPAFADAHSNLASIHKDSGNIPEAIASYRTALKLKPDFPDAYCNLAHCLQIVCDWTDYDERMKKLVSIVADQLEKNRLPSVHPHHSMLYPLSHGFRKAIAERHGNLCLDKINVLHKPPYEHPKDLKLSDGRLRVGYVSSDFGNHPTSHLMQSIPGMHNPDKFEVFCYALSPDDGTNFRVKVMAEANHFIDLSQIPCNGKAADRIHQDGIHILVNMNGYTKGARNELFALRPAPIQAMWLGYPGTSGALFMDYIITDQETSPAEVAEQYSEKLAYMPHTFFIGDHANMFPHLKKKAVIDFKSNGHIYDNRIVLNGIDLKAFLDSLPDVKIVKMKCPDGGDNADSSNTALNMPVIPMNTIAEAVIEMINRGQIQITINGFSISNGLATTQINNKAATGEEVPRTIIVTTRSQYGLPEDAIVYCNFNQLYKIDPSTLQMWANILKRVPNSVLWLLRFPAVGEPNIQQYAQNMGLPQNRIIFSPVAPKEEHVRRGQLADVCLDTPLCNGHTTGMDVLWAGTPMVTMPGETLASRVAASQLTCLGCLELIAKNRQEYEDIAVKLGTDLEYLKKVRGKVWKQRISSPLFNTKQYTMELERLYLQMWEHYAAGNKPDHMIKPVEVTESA

[2] = physiological pH; ref Lenzen and Munday [1991]; cited from earlier work

O=C1NC(=O)C(=O)C(=O)N1 [Alloxan]
concentration required to decrease cellular levels of O-GlcNAcylation [1]: millimolar concentrations
IC50 (hOGT): 18 ± 1 µM
half-life time [2]: 1.5 min
